Results published in patent US20250101020A1, “SPIROCYCLIC LACTAM INHIBITORS” (Incyte Corporation, priority 2023, published 2025).
Where a name gives a salt, the structure may show the parent alone.

Key:
[1] = biological target: pseudo-kinase domain (JH2) of human V617F mutant JAK2 (Homo sapiens (Human), UniProt O60674, F794H/V617F/W659A/W777A); assay: JAK2 LanthaScreen JH2-V617F Binding Assay; details: 50 nM tracer, 1 hour at 25° C.
Method: Example C. JAK2 LanthaScreen JH2-V617F Binding Assay
(§1) JAK2 JH2-V617F binding assay utilizes pseudo-kinase domain (JH2, amino-acids 536-812 with 3 surface mutations W659A, W777A, F794H) of human V617F mutant JAK2 expressed as C-terminal His-Avi-tagged, biotinylated protein in a baculovirus expression system (BPS Bioscience, Catalog #79498). The assay was conducted in black 384-well polystyrene plates in a final reaction volume of 20 μL. JAK2 JH2-V617F (0.26 nM) was incubated with compounds (100 nL serially diluted in DMSO) in the presence of 50 nM Fluorescent JAK2-JH2 Tracer (MedChem Express Catalog #HY-102055) and 0.25 nM Streptavidin-Tb cryptate (Cisbio Part #610SATLB) in assay buffer (50 mM Tris, pH=7.5, 10 mM MgCl2, 0.01% Brij-35, 0.1% BSA, 1 mM EGTA, 5% Glycerol and 5 mM DTT). Non-specific binding was accessed in the presence of 2 mM ATP. After incubation for 1 hour at 25° C., LanthaScreen signals were read on a PHERAstar FS plate reader (BMG LABTECH). Data was analyzed with IDBS XLfit and GraphPad Prism 5.0 software using a four parameter dose response curve to determine IC50 for each compound.

[2] = biological target: T1, catalytic domain (JH1) of human JAK2 (Homo sapiens (Human), UniProt O60674); assay: JAK2 LanthaScreen JH1 Binding Assay; details: JAK2 JH1, 50 nM tracer, 2 hours at 25° C.
Method: Example A. JAK2 LanthaScreen JH1 Binding Assay
JAK2 JH1 binding assay utilizes catalytic domain (JH1, amino acids 826-1132) of human JAK2 expressed as N-terminal FLAG-tagged, biotinylated protein in a baculovirus expression system (Carna Biosciences, Product #08-445-20N). The assay was conducted in black 384-well polystyrene plates in a final reaction volume of 20 μL. JAK2 JH1 (1.5 nM) was incubated with compounds (100 nL serially diluted in DMSO) in the presence of 50 nM Fluorescent JAK2-JH1 Tracer and 0.5 nM Streptavidin-Tb cryptate (Cisbio Part #610SATLB) in assay buffer (50 mM Tris, pH=7.5, 10 mM MgCl2, 0.01% Brij-35, 0.1% BSA, 1 mM EGTA, 5% Glycerol and 5 mM DTT). Non-specific binding was accessed in the presence of 2 mM ATP. After incubation for 2 hours at 25° C., LanthaScreen signals were read on a PHERAstar FS plate reader (BMG LABTECH). Data was analyzed with IDBS XLfit and GraphPad Prism 5.0 software using a four parameter dose response curve to determine IC50 for each compound.
Target sequence in this assay (O60674 826-1132): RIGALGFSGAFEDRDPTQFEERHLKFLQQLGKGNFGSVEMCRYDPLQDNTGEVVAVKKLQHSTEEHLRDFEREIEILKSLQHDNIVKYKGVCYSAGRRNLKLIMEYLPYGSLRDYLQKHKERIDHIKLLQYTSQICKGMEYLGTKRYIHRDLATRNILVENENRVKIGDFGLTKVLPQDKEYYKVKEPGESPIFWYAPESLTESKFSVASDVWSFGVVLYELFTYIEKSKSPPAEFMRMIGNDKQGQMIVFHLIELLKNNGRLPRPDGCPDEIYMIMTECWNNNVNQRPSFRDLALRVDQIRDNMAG

[3] = biological target: T1, catalytic domain (JH1) of human JAK2; assay: JAK2 HTRF Enzyme Activity Assay; type: biochemical; details: ATP 30 μM; read-out: ENZ 30UMATP IC50
Method: Example D. JAK2 HTRF Enzyme Activity Assay
JAK2 enzyme activity assays utilize catalytic domain (JH1, amino acids 808-1132) of human JAK2 expressed as N-terminal His-tagged protein in a baculovirus expression system (BPS Bioscience, Catalog #40450). The assays was conducted in black 384-well polystyrene plates in a final reaction volume of 20 μL. JAK2 (0.015 nM) was incubated with compounds (100 nL serially diluted in DMSO) in the presence of ATP (30 μM or 1 mM) and 500 nM Biotin-labeled EQEDEPEGDYFEWLE (SEQ ID NO.: 1) peptide (BioSource International, custom synthesis) in assay buffer (50 mM Tris, pH=7.5, 10 mM MgCl2, 0.01% Brij-35, 0.1% BSA, 1 mM EGTA, 5% Glycerol and 5 mM DTT) for 60 minutes at 25° C. The reactions were stopped by the addition of 10 μL of detection buffer (50 mM Tris, pH 7.8, 0.5 mg/mL BSA, 150 mM NaCl), supplemented with EDTA, LANCE Eu-W1024 anti-phosphotyrosine (PY20), (PerkinElmer, Catalog #AD0067) and Streptavidin SureLight APC (PerkinElmer Catalog #CR130-100), for a final concentration of 15 mM, 1.5 nM and 75 nM, respectively. HTRF signals were read after 30 minutes incubation at room temperature on a PHERAstar FS plate reader (BMG LABTECH). Data was analyzed with IDBS XLfit and GraphPad Prism 5.0 software using a four parameter dose response curve to determine IC50 for each compound.
Target sequence in this assay (O60674 808-1132): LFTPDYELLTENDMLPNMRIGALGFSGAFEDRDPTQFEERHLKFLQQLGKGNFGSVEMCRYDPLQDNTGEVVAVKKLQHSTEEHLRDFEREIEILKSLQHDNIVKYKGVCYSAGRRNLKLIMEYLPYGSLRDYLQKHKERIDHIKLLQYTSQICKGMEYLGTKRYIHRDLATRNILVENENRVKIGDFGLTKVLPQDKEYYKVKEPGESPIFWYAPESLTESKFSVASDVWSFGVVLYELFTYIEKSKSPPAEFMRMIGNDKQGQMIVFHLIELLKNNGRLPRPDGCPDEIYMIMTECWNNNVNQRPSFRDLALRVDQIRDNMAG

[4] = biological target: pseudo-kinase domain (JH2) of human Wild Type JAK2 (Homo sapiens (Human), UniProt O60674, F794H/W659A/W777A); assay: JAK2 LanthaScreen JH2-WT Binding Assay; details: 50 nM tracer, 1 hour at 25° C.
Sequence of pseudo-kinase domain (JH2) of human Wild Type JAK2 (O60674 536-812 W659A/W777A/F794H): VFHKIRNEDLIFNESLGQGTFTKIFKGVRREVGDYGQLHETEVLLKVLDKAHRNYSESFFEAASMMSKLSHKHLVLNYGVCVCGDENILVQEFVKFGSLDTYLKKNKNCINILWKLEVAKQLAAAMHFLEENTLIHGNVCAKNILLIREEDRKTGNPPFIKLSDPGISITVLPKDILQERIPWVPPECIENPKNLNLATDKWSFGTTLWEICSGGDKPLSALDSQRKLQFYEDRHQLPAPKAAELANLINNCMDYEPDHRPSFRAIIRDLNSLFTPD
Method: Example B. JAK2 LanthaScreen JH2-WT Binding Assay
as §1, with “JH2-WT” for “JH2-V617F”, “Wild Type” for “V617F mutant”, “#79463).” for “#79498).”, “JH2-WT (0.145” for “JH2-V617F (0.26”

Sequence of pseudo-kinase domain (JH2) of human V617F mutant JAK2 (O60674 536-812 V617F/W659A/W777A/F794H): as the sequence (O60674 536-812 W659A/W777A/F794H) above, with V82F counted along it

| SMILES | IC50 [1] [nM] | IC50 [2] [nM] | IC50 [3] [nM] | IC50 [4] [nM] |
| --- | --- | --- | --- | --- |
| CCNC(=O)NC1CCC2(CC1)C(=O)N(C)c1cnc(Nc3ccc4cccc(C(F)(F)F)c4n3)cc12 (single isomer, unassigned) [Example 1, 1-Ethyl-3-((1s,4s)-1′-(methyl-d3)-2′-oxo-5′-((8-(trifluoromethyl)quinolin-2-yl)amino)-1′,2′-dihydrospiro[cyclohexane-1,3′-pyrrolo[2,3-c]pyridin]-4-yl)urea, trifluoroacetate salt] | ≤ 100 | > 2500 | > 2500 | – |
| [2H]C([2H])([2H])N1C(=O)C2(CCC(NC(=O)NCC)CC2)c2cc(Nc3ccc4cccc(C(F)(F)F)c4n3)ncc21 (single isomer, unassigned) [Example 1, 1-Ethyl-3-((1s,4s)-1′-(methyl-d3)-2′-oxo-5′-((8-(trifluoromethyl)quinolin-2-yl)amino)-1′,2′-dihydrospiro[cyclohexane-1,3′-pyrrolo[2,3-c]pyridin]-4-yl)urea, trifluoroacetate salt] | – | – | – | ≤ 100 |
| CCNC(=O)NC1CCC2(CC1)C(=O)N(C)c1cnc(Nc3ccc4cccc(C(F)(F)F)c4n3)cc12 (single isomer, unassigned) [Example 2, 1-Ethyl-3-((1r,4r)-1′-(methyl-d3)-2′-oxo-5′-((8-(trifluoromethyl)quinolin-2-yl)amino)-1′,2′-dihydrospiro[cyclohexane-1,3′-pyrrolo[2,3-c]pyridin]-4-yl)urea, trifluoroacetate salt] | – | – | – | ≤ 100 |
| [2H]C([2H])([2H])N1c2cnc(Nc3ccc4cccc(C(F)(F)F)c4n3)cc2[C@]2(C[C@@H](CNC(=O)OC)C2)C1=O [Example 3, Methyl (((1r,3r)-1′-(methyl-d3)-2′-oxo-5′-((8-(trifluoromethyl)quinolin-2-yl)amino)-1′,2′-dihydrospiro[cyclobutane-1,3′-pyrrolo[2,3-c]pyridin]-3-yl)methyl)carbamate, trifluoroacetate salt] | ≤ 100 | – | > 2500 | – |
| [2H]C([2H])([2H])N1c2cnc(Nc3ccc4cccc(C(F)(F)F)c4n3)cc2[C@]2(C[C@@H](CNC(=O)C3CC3)C2)C1=O [Example 4, N-(((1r,3r)-1′-(Methyl-d3)-2′-oxo-5′-((8-(trifluoromethyl)quinolin-2-yl)amino)-1′,2′-dihydrospiro[cyclobutane-1,3′-pyrrolo[2,3-c]pyridin]-3-yl)methyl)cyclopropanecarboxamide, trifluoroacetate salt] | ≤ 100 | – | > 2500 | – |
| [2H]C([2H])([2H])N1c2cnc(Nc3ccc4c(n3)c(-c3cnn(C(F)(F)F)c3)nn4C)cc2[C@]2(C[C@@H](CO)C2)C1=O [Example 5, (1r,3r)-3-(Hydroxymethyl)-1′-(methyl-d3)-5′-((1-methyl-3-(1-(trifluoromethyl)-1H-pyrazol-4-yl)-1H-pyrazolo[4,3-b]pyridin-5-yl)amino)spiro[cyclobutane-1,3′-pyrrolo[2,3-c]pyridin]-2′(1′H)-one, trifluoroacetate salt] | ≤ 100 | – | > 2500 | – |
| [2H]C([2H])([2H])N1c2cnc(Nc3ccc4c(n3)c(-c3cnn(C(F)(F)F)c3)nn4C)cc2[C@]2(C[C@@H](CNC(=O)OC)C2)C1=O [Example 6, Methyl (((1r,3r)-1′-(methyl-d3)-5′-((1-methyl-3-(1-(trifluoromethyl)-1H-pyrazol-4-yl)-1H-pyrazolo[4,3-b]pyridin-5-yl)amino)-2′-oxo-1′,2′-dihydrospiro[cyclobutane-1,3′-pyrrolo[2,3-c]pyridin]-3-yl)methyl)carbamate, trifluoroacetate salt] | ≤ 100 | – | > 2500 | – |
| [2H]C([2H])([2H])N1c2cnc(Nc3ccc4c(n3)c(-c3cnn(C(F)(F)F)c3)nn4C)cc2[C@]2(C[C@@H](CNC(=O)C3CC3)C2)C1=O [Example 7, N-(((1r,3r)-1′-(Methyl-d3)-5′-((1-methyl-3-(1-(trifluoromethyl)-1H-pyrazol-4-yl)-1H-pyrazolo[4,3-b]pyridin-5-yl)amino)-2′-oxo-1′,2′-dihydrospiro[cyclobutane-1,3′-pyrrolo[2,3-c]pyridin]-3-yl)methyl)cyclopropanecarboxamide, trifluoroacetate salt] | ≤ 100 | – | > 2500 | – |
